From patent US20160303189A1, “Applications of Recombined Ganoderma Lucidum Immunoregulation Protein in Preparing Drugs for Treating Tissue Fibrosis” (priority 2014, published 2016)

How the values were obtained:
Assay type in all cases: in vivo
[1] = test system: Dox-induced myocardial damage; test: Treatment effect of rLZ-8 on Dox-induced myocardial damage in mice; conditions: Group H: 10 mg/kg fosinopril sodium tablets, intragastric, every two days
Description: Experiment grouping: there were 8 experimental groups, 10 mice/per group, saline group (Group A), model group (Group B), rLZ-8 3 μg/kg (Group C), rLZ-8 6 μg/kg(Group D), rLZ-8 12 μg/kg (Group E), rLZ-8 24 μg/kg (Group F), rLZ-8 48 μg/kg (Group G) and positive control group (Group H).
Treating process: The model making process was the same as embodiment 3. The models for groups B, C, D, E, F, G and H were made with 3 mg/kg Dox, and then as control groups, Groups A and B were given intraperitoneal injection of saline once every day, and Groups C, D, E, G and H were treated with rLZ-8, intravenous injection once every 2 days. The mice were weighed every 3 days and drugs were delivered in accordance with weights. The dose for Group C was 3 μg/kg, Group D was 6 μg/kg, Group E was 12 μg/kg, Group F was 24 μg/kg, Group G was 48 μg/kg, and as the positive control group, every two days the mice in Group H were given 10 mg/kg fosinopril sodium tablets by way of intragastric administration.
Experiment records: The deaths of the mice were recorded at 9:00 and 17:00 every day and activities of the mice were closely watched. […] The myocardial tissues were made into paraffin sections and were treated with HE staining and trichrome staining to do histological examinations.
Experimental results: In order to examine myocardial fibrosis grades of the mice and myocardial fibrosis status, in the seventh week, samples were taken according to the mortality rates. […] Sample taking: the mice were killed with the right amount of anesthetic injections and hearts of the mice were isolated under sterile conditions and rinsed with cold PBS, and then blood was blotted up filter paper. The ventricles were selected and crosscut at a 1/2 section. The myocardial tissue was put into 4% paraformaldehyde solution to be fixed, then it was paraffin sectioned and HE stained. Three slices were cut from each tissue and stained under the same conditions. The myocardial tissue of the mice was Masson stained and was photographed under 20 times 40 times microscopes and statistics were recorded.

[2] = test system: model rats with liver fibrosis; test: Effects of rLZ-8 on serum ALT, AST and ALB of CCl4 model rats with liver fibrosis; conditions: Group C: glycyrrhizin (Ganlixin) 12.5 mg/kg s.c. once a day
Description: (§1) Experiment grouping: model group, positive drug group and the treatment group were given subcutaneous injection of 50% volume fraction carbon tetrachloride olive oil solution, twice a week, starting 8:00 in the morning on Mondays and Thursdays, lasting for 8 weeks to replicate the cirrhosis model. For the first time the dose was 0.5 ml/100 g in accordance with weights of the mice, then 0.3 ml/100 g every four days in accordance with weights of the mice. They ate and drank water freely. At the same time on Mondays changes in rats' weights were monitored and the possibility of liver failure was preliminary estimated in order to reduce the mortality rated caused by replicating the cirrhosis model.
(§2) Treating process: In the control group (group A), the model group (group B), the positive drug group (glycyrrhizin group C), the low-dose treatment group (group D), the medium-dose treatment group (group E) and the high-dose treatment group (group F), 8 weeks after the cirrhosis models were built, the rats were anesthetized with ether, blood was drawn from retinal venous plexus to test serum liver biochemical indicators; the positive drug group were given subcutaneous injection of Ganlixin solution, the injection volume was 12.5 mg/kg. The process was performed once a day, lasting for 4 weeks; for the low, medium and high rLZ-8 dose groups, the concentration of subcutaneous injections were 15 μg/kg, 30 μg/kg and […] respectively; the injections were given once a day for 4 weeks; till the end of the 12th week, the mice were denied food but not water for 18 hours and anesthetized with ether. The eyeball blood of the rats was drawn, about […] samples of blood were centrifuged to get serum and then were put into a −20° C. deep freezer to be tested for serum biochemical indexes.
In the present experiment, the rats' liver fibrosis models were replicated by CCl4: olive oil (1:1) for 8 weeks. […] Compared with the control group, the difference was obvious and was statistically significant. The effect of medium dose rLZ-8 was the best.

[3] = test system: model rats with liver fibrosis; test: Effects of rLZ-8 on body mass, liver weight and liver indexes of CCl4 model rats with liver fibrosis; conditions: 4 weeks
Description: as §1, §2

[4] = test system: lung tissue of mice (pulmonary fibrosis model); test: Model building of pulmonary fibrosis by BLM atomization, Szapiel grading of lung sections; conditions: for number of mice with Szapiel grade 0 (no alveolitis or fibrosis) / number of mice with Szapiel grade I (mild alveolitis or fibrosis) / number of mice with Szapiel grade II (medium alveolitis or fibrosis) / number of mice with Szapiel grade III (severe alveolitis or fibrosis): n=12
Description: 1) Modeling experiment grouping: Three groups were classified, a saline group (group A), a low BLM dose group (group B 4 mg/mL), a high BLM dose group (group C 8 mg/Ml), there were 12 mice in each group. The 12 mice in each group were divided into two groups, with 6 mice in each group and the two groups of mice were respectively put into 20×20×20 cm transparent glass containers with corresponding marks, then saline and BLM was sprayed respectively into the containers with medical ultrasonic nebulizers.
2) Model administration process: Each time the spray volume was 1 ml, then a glass cover was closed for 15 minutes and the mice were put back into cages to rest for 5 minutes, and the procedure was repeated 6 times.
The mice were killed respectively after 3 days, 7 days, 14 days and 21 days of feeding, and the lungs of the mice were taken out to see changes in appearance, color and the lung surface; after the lungs were taken out, broncho-alveolar lavage was done first, and then parts of the lung tissue were sliced into paraffin sections and histological examination was done on HE stain; RT-PCR was done on another parts of lung tissue to examine RNA level. Judged from histological analysis, RNA level, protein level and changes in amounts of inflammatory cells, a decision was made to see whether the model of pulmonary fibrosis is usable. The table below is the grading standards made by method of Szapiel to evaluate grading standard of seriousness of the pathological changes in the lung tissue.
There are 4 grades in Szapiel's pathological changes in lung tissue: “0” is grade 1; “I” is grade 2; “II” is grade 3; and “III” is grade 4. The higher the grade, the severer the degree of fibrosis is.

[5] = Group C: glycyrrhizin (Ganlixin solution) 12.5 mg/kg subcutaneous once a day
[6] = High BLM group, 8 mg/mL atomization
[7] = Low BLM group, 4 mg/mL atomization

Compound: CCC(=O)O[C@@H](O[P@](=O)(CCCCc1ccccc1)CC(=O)N1C[C@H](C2CCCCC2)C[C@H]1C(=O)O)C(C)C [fosinopril sodium]
- Deaths [1]: 0
- Number of Mice (sampled in week 7 according to mortality, 10 mice per group at start) [1]: 7
- Interstitial Fibrosis grade 0, number of mice ([1]; week 7): 6
- Interstitial Fibrosis grade +++, number of mice ([1]; week 7): 0
- Interstitial Fibrosis grade ++, number of mice ([1]; week 7): 0
- Interstitial Fibrosis grade +, number of mice ([1]; week 7): 1
- Perivascular Fibrosis grade 0, number of mice ([1]; week 7): 5
- Perivascular Fibrosis grade +++, number of mice ([1]; week 7): 0
- Perivascular Fibrosis grade ++, number of mice ([1]; week 7): 1
- Perivascular Fibrosis grade +, number of mice ([1]; week 7): 1
- Vacuolization grade 0, number of mice ([1]; week 7): 6
- Vacuolization grade +++, number of mice ([1]; week 7): 0
- Vacuolization grade ++, number of mice ([1]; week 7): 1
- Vacuolization grade +, number of mice ([1]; week 7): 0

Compound: CC1(C)[C@@H](O[C@H]2O[C@H](C(=O)O)[C@@H](O)[C@H](O)[C@H]2O[C@@H]2O[C@H](C(=O)O)[C@@H](O)[C@H](O)[C@H]2O)CC[C@]2(C)[C@H]3C(=O)C=C4[C@@H]5C[C@@](C)(C(=O)O)CC[C@]5(C)CC[C@@]4(C)[C@]3(C)CC[C@@H]12 [glycyrrhizin]
- serum ALB ([2]; Day 10): 34.8 ± 0.2 g/L
- serum ALT ([2]; Day 10): 143.3 ± 0.9 U/L
- serum AST ([2]; Day 10): 176.2 ± 6.1 U/L
- serum ALB ([2]; Day 20): 30.0 ± 0.2 g/L
- serum ALT ([2]; Day 20): 126.2 ± 1.3 U/L
- serum AST ([2]; Day 20): 205.8 ± 4.2 U/L
- serum ALB ([2]; Day 30): 32.5 ± 0.1 g/L
- serum ALT ([2]; Day 30): 49.5 ± 0.6 U/L
- serum AST ([2]; Day 30): 59.0 ± 1.9 U/L
- Model weight ([3]; Group C: glycyrrhizin (Ganlixin solution) 12.5 mg/kg s.c. once a day, weight after modelling): 303.5 ± 39.2 g
- Final weights [3, 5]: 397.1 ± 46.4 g
- Liver indexes [3, 5]: 3.1 ± 0.4%
- Liver weights [3, 5]: 12.43 ± 2.25 g

Compound: bleomycin [BLM]
- number of mice with Szapiel grade 0 (no alveolitis or fibrosis) [4, 6]: 0
- number of mice with Szapiel grade I (mild alveolitis or fibrosis) [4, 6]: 1
- number of mice with Szapiel grade II (medium alveolitis or fibrosis) [4, 6]: 2
- number of mice with Szapiel grade III (severe alveolitis or fibrosis) [4, 6]: 9
- number of mice with Szapiel grade 0 (no alveolitis or fibrosis) [4, 7]: 0
- number of mice with Szapiel grade I (mild alveolitis or fibrosis) [4, 7]: 3
- number of mice with Szapiel grade II (medium alveolitis or fibrosis) [4, 7]: 8
- number of mice with Szapiel grade III (severe alveolitis or fibrosis) [4, 7]: 1
- deaths of mice ([4]; high BLM dose group, 8 mg/mL): most of them died of respiratory failures
- lung sections of the mice showing severe fibrosis ([4]; high BLM dose group, 8 mg/mL): 75%
- lung sections of the mice showing medium fibrosis ([4]; low BLM dose group, 4 mg/mL): 66%
